Tested on: CFA inflammatory pain model
Experiment: CFA inflammatory pain model, mechanical pain threshold by VonFrey electronic aesthesiometer
Format: in vivo, Sprague-Dawley (SD) rats
Text: Experimental animals: SPF male Sprague-Dawley (SD) rats, weighing 180±30 g, obtained from Shanghai Sippe-Bk Lab Animal Co., Ltd. Experimental samples: Compounds 1, 2, and 3 and CCPA were used to prepare the corresponding pharmaceutical compositions according to the following formulation amounts and method. [table] Preparation method: Formulation amounts of compounds 1, 2, and 3 and CCPA were separately weighed out, added to a proper amount of tert-butanol/water mixed solution, and dissolved by stirring. Then formulation amounts of dimyristoylphosphatidylcholine (DMPC) and cholesterol were added and dissolved by stirring. The above solutions were made up to volume (25-40 mL), added to vials, and lyophilized in a lyophilizer for later use. When used, the lyophilizates were dissolved in normal saline to 1 mg/mL, 2 mg/mL, 4 mg/mL, and 8 mg/mL. SD rats, 6 to 8-week-old and weighing 150 g-200 g, were divided into a control group, a model control group, and an administration group. A CFA inflammatory pain model was obtained 24 h after 100 μL of complete Freund's adjuvant was injected into the soles of the left feet of the rats in the model control group and the administration group. The injection was performed at left Zusanli, and the injection volume was 100 μL. [table] Note: For the control group, 100 μL of normal saline was injected into the soles of the feet. For the model control group, 100 μL of normal saline was injected into Zusanli after the model was successfully established. A VonFrey electronic aesthesiometer was used to measure the pain threshold, and mechanical pain was used as an evaluation index. Observations of the basal pain threshold were started 1 day before the model was established and ended 14 days after the model was established. Pain thresholds before and after administration for different groups of animals were plotted using Graph Pad Prism 8.3.0 software. Based on the dose-response curve 48 h after administration, the EC50 and EC90 were obtained through fitting.

EC50 change compared to CCPA (compared to CCPA): 4 fold
EC90 change compared to CCPA (compared to CCPA): 6 fold
EC50 change compared to compound 2 (compared to compound 2): ~3 fold
EC90 change compared to compound 2 (compared to compound 2): ~3 fold
SMILES: CCCCCCCCCCCCCCC(=O)OC[C@H]1O[C@@H](n2cnc3c(NC4CCCC4)nc(Cl)nc32)[C@H](O)[C@@H]1O [Compound 1, ((2R,3S,4R,5R)-5-(2-Chloro-6-(cyclopentylamino)-9H-purin-9-yl)-3,4-dihydroxytetrahydrofuran-2-yl)methyl pentadecanoate]

— US20250361261A1, “CYCLOPENTYL ADENOSINE DERIVATIVE AND PHARMACEUTICAL USE THEREOF” (priority 2022, published 2025)
